Measurements reported in patent US10344019B2 (priority 2010, dated 2019).
Where two headings read alike, the source gives them in different places.

Assays:
Assay in all cases: microbe, parasite or virus in culture
Format in all cases: cell-based
[1] = tested on: HCV 1a RLuc cells (dicistronic genotype 1a H77 replicon, RLuc reporter); details: Hepatitis C virus, genotype 1a H77 replicon, read-out: 1a
Procedure: (§1) Evaluation of cell-based anti-HCV activity: Antiviral potency (EC50) was determined using a Renilla luciferase (RLuc)-based HCV replicon reporter assay. To perform the assay for genotype 1 and 2a JFH-1, HCV 1b RLuc cells (harboring a dicistronic genotype 1b Con1 replicon that encodes a RLuc reporter), or HCV 1a RLuc cells (harboring a dicistronic genotype 1a H77 replicon that encodes a RLuc reporter), or HCV 2a JFH-1 Rluc cells (harboring a dicistronic genotype 2a JFH-1 replicon that encodes a RLuc reporter) were dispensed into 384-well plates. To perform the assay for genotype 2a (with M31 present) or 2b, HCV 2a Rluc or 2b Rluc cells (both with M31 present) harboring a dicistronic NS5A chimeric genotype 2a JFH-1 replicon that encodes a RLuc reporter and either genotype 2a J6 strain NS5A gene or genotype 2b MD2b-1 NS5A gene (based on Los Alamos HCV database isolates, both with M31 present) respectively, were dispensed into 384-well plates. To perform the assay for genotype 3 and 4, HCV 3a RLuc or 4a Rluc cells harboring a dicistronic NS5A chimeric genotype 1b Con1 replicon that encodes a RLuc reporter and either a consensus genotype 3a NS5A gene or genotype 4a NS5A gene (based on Los Alamos HCV database isolates) respectively, were dispensed into 384-well plates. Compounds were re-suspended in DMSO at a concentration of 10 mM and serially diluted in DMSO either manually or using an automated pipeting instrument. Serially diluted compounds were mixed with cell culture media and added to the seeded cells. […] 72 hours later, cells were lysed and Renilla luciferase activity quantified as recommended by the manufacturer (Promega-Madison, Wis.). Non-linear regression was performed to calculate EC50 values.

[2] = tested on: HCV 1b RLuc cells (dicistronic genotype 1b Con1 replicon, RLuc reporter); details: Hepatitis C virus, read-out: 1b (nM)
Procedure: as §1

[3] = tested on: HCV 2a JFH-1 Rluc cells (dicistronic genotype 2a JFH-1 replicon, RLuc reporter); details: Hepatitis C virus, genotype 2a JFH-1 replicon, read-out: 2a JFH
Procedure: as §1

[4] = tested on: HCV 3a RLuc cells (NS5A chimeric genotype 1b Con1 replicon with consensus genotype 3a NS5A gene); details: Hepatitis C virus
Procedure: as §1

[5] = read-out: 3a, genotype 3a NS5A chimeric 1b Con1 replicon

SMILES	EC50 ([1]; RLuc reporter) [nM]	EC50 [2] [nM]	EC50 ([3]; RLuc reporter) [nM]	EC50 [4, 5] [nM]	EC50 ([1]; 72 h, Table 2, 72 hours) [nM]	EC50 ([2]; 72 h) [nM]	EC50 ([3]; 72 h, Table 2, 72 hours) [nM]	EC50 ([4]; read-out: 3a, Table 2, genotype 3a NS5A chimeric replicon) [nM]
COC(=O)N[C@H](C(=O)N1C[C@H](C)C[C@H]1c1ncc(-c2cc3cc4sc(-c5cnc([C@@H]6C[C@@H](C)CN6C(=O)[C@@H](NC(=O)OC)C(C)C)[nH]5)cc4cc3s2)[nH]1)C(C)C [Example 121]	0.001 to 0.999	0.011	0.001 to 0.999	1 to 4.99				
COC(=O)NC(C(=O)N1CCC[C@H]1c1ncc(-c2ccc3cc(-c4ccc(-c5cnc([C@@H]6CCCN6C(=O)[C@@H](NC(=O)OC)C(C)C)[nH]5)cc4)ccc3c2)[nH]1)c1ccc(OC(F)(F)F)cc1 (stereo partly drawn) [Example 111]	1 to 44	0.16	> 44	> 5				
COC(=O)N[C@H](C(=O)N1CCC[C@H]1c1ncc(-c2ccc3cc(-c4ccc(-c5cnc([C@@H]6C[C@H](C#N)CN6C(=O)[C@H](NC(=O)OC)c6ccccc6)[nH]5)cc4)ccc3c2)[nH]1)C(C)C [Example 124]	0.001 to 0.999	0.011	0.001 to 0.999	0.001 to 0.99				
COC(=O)N[C@H](C(=O)N1CCC[C@H]1c1nc(-c2ccc(-c3ccc4cc(C5=CNC([C@@H]6CCCN6C(=O)[C@H](NC(=O)OC)c6ccccc6)N5)ccc4c3)cc2)c[nH]1)C1CCOCC1 (stereo partly drawn) [Example 178]	0.001 to 0.999	0.024	0.001 to 0.999	0.001 to 0.99				
COC(=O)NC(C(=O)N1CC2(C[C@H]1c1nc3c([nH]1)-c1ccc(-c4ccc5c(ccc6nc([C@@H]7CCCN7C(=O)[C@@H](NC(=O)OC)C(C)C)[nH]c65)c4)cc1CC3)OCCO2)C1CCOCC1 (stereo partly drawn) [Example 87]					0.001 to 0.999	0.163	0.001 to 0.999	0.001 to 0.99
COC(=O)NC(C(=O)N1CCC[C@H]1c1ncc(-c2ccc(-c3ccc4cc(-c5cnc([C@@H]6CCCN6C(=O)[C@@H](NC(=O)OC)C(C)C)[nH]5)ccc4c3)cc2)[nH]1)c1ccccn1 (stereo partly drawn) [Example 183]	0.001 to 0.999	0.013	0.001 to 0.999	1 to 4.99				
COC(=O)N[C@H](C(=O)N1CCC[C@H]1c1ncc(-c2ccc3c(c2)CCc2cc(-c4cnc([C@@H]5CCCN5C(=O)[C@H](NC(=O)OC)c5ccccc5)[nH]4)ccc2-3)[nH]1)C(C)C [Example 180]	0.001 to 0.999	0.007	0.001 to 0.999	0.001 to 0.99				
CCN(C1CC1)[C@@H](C(=O)N1CCC[C@H]1c1nc(-c2ccc(-c3ccc4cc(-c5c[nH]c([C@@H]6CCCN6C(=O)[C@@H](NC(=O)OC)C(C)C)n5)ccc4c3)cc2)c[nH]1)c1ccccc1 [Example 168]	1 to 44	0.01	1 to 44	0.001 to 0.99				
COC(=O)N[C@H](C(=O)N1Cc2ccccc2C1c1nc(-c2ccc(-c3ccc4cc(-c5cnc([C@@H]6CCCN6C(=O)[C@@H](NC(=O)OC)C(C)C)[nH]5)ccc4c3)cc2)c[nH]1)C(C)C (stereo partly drawn) [Example 112]	0.001 to 0.999	0.018	1 to 44	> 5				
CN(C)C(C(=O)N1CCC[C@H]1c1ncc(-c2ccc3cc(-c4ccc(-c5cnc([C@@H]6CCCN6C(=O)[C@H](C6CCOCC6)N(C)C)[nH]5)cc4)ccc3c2)[nH]1)c1ccccc1 (stereo partly drawn) [Example 156]	0.001 to 0.999	0.028	0.001 to 0.999	0.001 to 0.99				
COC(=O)NC(C(=O)N1C[C@H](C)C[C@H]1c1ncc(-c2ccc(-c3ccc4cc(-c5cnc([C@@H]6CCCN6C(=O)[C@@H](NC(=O)OC)C6CCOCC6)[nH]5)ccc4c3)cc2)[nH]1)c1cccnc1 (stereo partly drawn) [Example 214]	0.001 to 0.999	0.06	0.001 to 0.999	0.001 to 0.99				
COC(=O)N[C@H](C(=O)N1CCC[C@H]1c1nc2c([nH]1)-c1ccc(-c3ccc4cc(-c5cnc([C@@H]6CCCN6C(=O)[C@@H](NC(=O)OC)C6CCOCC6)[nH]5)ccc4c3)cc1CC2)C(C)C [Example 209]	0.001 to 0.999	0.014	0.001 to 0.999	0.001 to 0.99				
